Measured values as given in US9011839B2, “Anti-inflammatory and anti-vaginitis food composition and pharmaceutical composition containing Lactobacillus” (Glac Biotech Co., Ltd., priority 2010, dated 2015).

How the values were obtained:
vaginitis patients = conditions: Barrons et al (2008); tampons, 4-8 weeks; cited from earlier work
human dendritic cells [1] = experiment: Inhibition of TNF-α secretion using an in vitro assay platform of dendritic cells; format: cell-based; conditions: human dendritic cells co-cultured 48 hours with heated LAB (1:10); supernatant ELISA; Mean±SD
Procedure: A. Inhibition of TNF-α Secretion Using an In Vitro Assay Platform of Dendritic Cells.
(§1) The inhibition assay for Th17 immune response is implemented by measuring TNF-α secretion after co-culture with the above-mentioned lactic acid bacteria. The assay procedures are listed as followings: • 1. 200 mL human blood are obtained from healthy donors. • 2. 1:1 blood isolates (Ficoll-paque) and blood are centrifuged at 400 g in 18-20° C. for 30-40 min. • 3. Cells obtained from human PBMC (Peripheral Blood Mononuclear Cell) layer are washed with buffer solution 2-3 times and suspended with appropriate culture medium such as RPMI-1640. • 4. CD14^+ monocytes are purified from PBMC cells by using CD14^+ microbeads (MiniMACS system). • 5. Cells are differentiated into dendritic cells after incubating for 6-7 days by stimulating with IL-4 and GM-CSF and differentiated dendritic cells are then collected. • 6. The lactic acid bacteria strain is activated 3 days before co-culture and is then heated for thermal death at 100° C. for 30 min. • 7. The dendritic cells and the heated lactic acid bacteria strain (1:10) are co-cultured for 48 hours. • 8. The supernatant of the cell culture medium is collected and used for measuring TNF-α amount by using ELISA (enzyme-linked-immunosorbent serologic assay).
The statistic results (Mean±SD) of data are analyzed in Table 3. […]

human dendritic cells [2] = experiment: Stimulation of IL-10 secretion using an in vitro assay platform of dendritic cells; format: cell-based; conditions: human dendritic cells co-cultured 48 hours with heated LAB (1:10); supernatant ELISA; Mean±SD
Procedure: B. Stimulation of IL-10 Secretion Using an In Vitro Assay Platform of Dendritic Cells.
as §1, with “In order to measure the increased amount of IL-10 secretion, human dendritic cells and” for “The inhibition assay for Th17 immune response is implemented by measuring TNF-α secretion after co-culture with”, “bacteria are co-cultured and the secretion of IL-10 is then measured so as to determine the promoting effect on inhibiting inflammatory cells from secreting cytokine.” for “bacteria.”, “donors;” for “donors.”, “The supernatant of the cell culture medium is collected and used for measuring TNF-α amount by using ELISA (enzyme-linked-immunosorbent serologic assay).” left out
The statistic results (Mean±SD) of data are analyzed in Table 4. […]

For CC(=O)O [acetic acid], the “vaginitis patients revealing improvement” value (vaginitis patients) is given as 38%.
For Lipopolysaccharide [LPS], the “TNF-α Secretion” value (human dendritic cells [1]) was 1521 ± 37 pg/mL.
For Phytohemagglutinin [PHA], the “IL-10 Secretion” value (human dendritic cells [2]) was 9145 ± 118 pg/mL.
